# Data from article PMC10892120, “Design, Synthesis and Biological Assessment of N′-(2-Oxoindolin-3-ylidene)-6-methylimidazo[2,1-b]thiazole-5-carbohydrazides as Potential Anti-Proliferative Agents toward MCF-7 Breast Cancer” (Pharmaceuticals, 2024).
# Assays:
# Bcl-2 = assay: RT-PCR gene expression in treated MCF-7 cells: Bcl-2; assay type: cell-based; conditions: treated MCF-7 cells vs untreated control MCF-7 (=1)
# Description: (§1) The gene expression levels of apoptosis genes in MCF-7 cells were measured using RT-PCR to validate the apoptosis-inducing behaviors of the potent lead compound 6i in MCF-7 cells.
# (§2) The gene expression levels of apoptosis genes were evaluated in MCF-7 cells using the following approaches in the Supplementary Data, page 43.
# (§3) Inhibitor solution of each well labeled as “Test Inhibitor”. For the “Positive Control" and “Blank”, add 5 μl of the same solution without inhibitor (Inhibitor buffer). Prepare 3 ml of 1x Kinase Buffer 1 by mixing 600 μl of 5x Kinase Buffer 1 with 2400 μl water. 3 ml of 1x Kinase Buffer 1 is sufficient for 100 reactions. To the wells designated as "Blank", add 20 μl of 1x Kinase Buffer 1.
# (§4) Thaw VEGFR2 enzyme on ice. Upon first thaw, briefly spin tube containing enzyme to recover full content of the tube. Calculate the amount of VEGFR2 required for the assay and dilute enzyme to 1 ng/μl with 1x Kinase Buffer 1. Store remaining undiluted enzyme in aliquots at -80°C. Note:
# (§5) VEGFR2 enzyme is sensitive to freeze/thaw cycles. Avoid multiple freeze/thaw cycles. […]
# (§6) use thawed aliquots or diluted enzyme. […]
# (§7) thoroughly, and then centrifuge at 4°C to collect contents to the bottom of the tube. […] Preparation of a reaction cocktail is crucial in quantitative PCR applications to reduce pipetting errors and maximize assay precision and accuracy. […]
# MCF-10A = assay: MTT assay, cytotoxicity toward MCF-10A; assay type: cell-based; conditions: Homo sapiens
# Description: The developed compounds were evaluated in vitro using the MTT cell viability assay following the published techniques (Supplementary Data, page 42). […]
# The 96 well tissue culture plate was seeded with 1 X 10^5 cells / ml (100 ul / well) and cultured at 37 degrees Celsius for 24 hours to form a full monolayer sheet. After forming a confluent sheet of cells, growth medium was decanted from 96 well micro titer plates, the cell monolayer was washed twice with wash media, and two-fold dilutions of the tested sample were prepared in RPMI medium with 2% serum (maintenance medium). In each well, 0.1 ml of each dilution was examined, with three wells serving as controls and receiving only maintenance media.
# The plate was incubated at 37 degrees Celsius and then analyzed. Cells were examined for any physical evidence of toxicity, such as partial or total monolayer loss, rounding, shrinkage, or cell granulation. MTT solution (5mg/ml in PBS) was prepared (BIO BASIC CANADA INC), and 20ul MTT solution was added to each well. Shake the MTT into the medium for 5 minutes at 150rpm on a shaking table. Incubate for 4 hours (37°C, 5% CO2) to allow the MTT to be digested. Remove the media. (If required, dry plate on paper towels to remove residue. In 200ul DMSO, resuspend formazan (MTT metabolic product). Shake at 150rpm for 5 minutes to properly mix the formazan into the solvent. At 560nm, measure optical density and subtract background at 620nm. The optical density should be proportional to the number of cells. MCF-7 and MCF-10A cell lines were provided with 10% fetal bovine serum (FBS, Sigma-Aldrich, MO, USA). Data are presented as the mean of the IC50 values ± SD from three different experiments. […]
# VEGFR-2 = VEGFR-2 (Homo sapiens, UniProt P35968); assay: In vitro VEGFR-2 kinase inhibition assay; assay type: biochemical; conditions: mean ± SD of three experiments
# Caspase-8 = assay: RT-PCR gene expression in treated MCF-7 cells: caspase 8; assay type: cell-based; conditions: treated MCF-7 cells vs untreated control MCF-7 (=1)
# Description: as §1, §2, §3, §4, §5, §6, §7
# Chain of VEGFR-2 (P35968 20-1356): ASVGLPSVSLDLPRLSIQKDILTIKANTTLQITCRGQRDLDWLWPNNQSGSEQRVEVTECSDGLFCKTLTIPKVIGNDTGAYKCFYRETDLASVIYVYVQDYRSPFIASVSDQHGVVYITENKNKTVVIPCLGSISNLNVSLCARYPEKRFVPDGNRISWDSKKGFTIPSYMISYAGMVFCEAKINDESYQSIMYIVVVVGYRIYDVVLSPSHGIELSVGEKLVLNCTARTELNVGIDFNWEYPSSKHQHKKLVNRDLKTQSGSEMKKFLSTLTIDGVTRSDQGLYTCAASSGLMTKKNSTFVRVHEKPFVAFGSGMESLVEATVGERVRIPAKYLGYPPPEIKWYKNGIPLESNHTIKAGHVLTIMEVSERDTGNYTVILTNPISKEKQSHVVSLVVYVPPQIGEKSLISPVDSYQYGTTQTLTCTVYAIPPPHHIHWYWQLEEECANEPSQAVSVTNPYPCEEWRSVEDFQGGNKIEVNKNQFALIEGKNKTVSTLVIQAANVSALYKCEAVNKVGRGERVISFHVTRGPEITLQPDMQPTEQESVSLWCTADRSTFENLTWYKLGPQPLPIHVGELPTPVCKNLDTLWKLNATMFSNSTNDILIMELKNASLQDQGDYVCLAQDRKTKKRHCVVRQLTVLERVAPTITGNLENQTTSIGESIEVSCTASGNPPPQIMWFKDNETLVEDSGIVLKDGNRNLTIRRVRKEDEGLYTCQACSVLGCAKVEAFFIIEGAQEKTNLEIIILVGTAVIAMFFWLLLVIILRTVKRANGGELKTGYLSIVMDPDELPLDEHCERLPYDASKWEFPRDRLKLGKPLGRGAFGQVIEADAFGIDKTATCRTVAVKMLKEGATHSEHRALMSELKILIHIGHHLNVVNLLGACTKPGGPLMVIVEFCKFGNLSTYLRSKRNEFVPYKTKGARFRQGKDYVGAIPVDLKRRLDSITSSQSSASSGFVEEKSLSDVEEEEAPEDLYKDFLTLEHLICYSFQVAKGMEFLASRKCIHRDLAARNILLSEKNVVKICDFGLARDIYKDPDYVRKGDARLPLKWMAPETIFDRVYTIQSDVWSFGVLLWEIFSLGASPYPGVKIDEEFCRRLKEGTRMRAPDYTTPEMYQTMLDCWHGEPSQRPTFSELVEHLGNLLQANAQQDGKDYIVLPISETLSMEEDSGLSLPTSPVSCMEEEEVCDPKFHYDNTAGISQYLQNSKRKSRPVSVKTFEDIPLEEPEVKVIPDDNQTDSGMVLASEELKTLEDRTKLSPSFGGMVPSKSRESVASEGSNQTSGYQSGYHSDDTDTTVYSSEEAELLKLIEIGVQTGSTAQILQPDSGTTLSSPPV
smiles,measurement,setting,value
"CCCCN1C(=O)C(=NNC(=O)c2c(C)nc3sccn23)c2ccccc21 [Compound 6i, N′-(1-Butyl-2-oxoindolin-3-ylidene)-6-methylimidazo[2,1-b]thiazole-5-carbohydrazide]",melting point,,250 to 251 °C
same,RT-PCR Fold Change Bcl-2,Bcl-2,0.359 fold
same,IC50,MCF-10A,54.6 ± 1.29 µM
same,IC50,VEGFR-2,0.33 ± 0.01 µM
same,RT-PCR Fold Change Caspase-8,Caspase-8,2.727 fold
